Like-named read-outs stand apart in the source and are kept apart here.
Target: CXCR3 (Macaca fascicularis, UniProt A0A2K5UV19)
Experiment: functional cellular assay measuring calcium flux in CXCR3 transfected cells (block of CXCR3/IP-10 interaction)
Type: cell-based, Cyno
Procedure, shortened: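 Cyno-CHO cells stably expressing CXCR3 and G-alpha-16, loaded with Ca-4 dye in HBSS/10 mM HEPES pH 7.4 with 2 mM probenecid for 1 h at 37° C. Compound (final 10 microM) preincubated 15 min at room temperature, then IP-10 at EC80 added; calcium flux read at 480/540 nm.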

[1] = IP-10 induced intracellular calcium flux, Cyno-CHO cells stably expressing recombinant CXCR3 and G-alpha-16, IP-10 at EC80, read-out: IC50

CXCR3, sequence (A0A2K5UV19 entry or part of it): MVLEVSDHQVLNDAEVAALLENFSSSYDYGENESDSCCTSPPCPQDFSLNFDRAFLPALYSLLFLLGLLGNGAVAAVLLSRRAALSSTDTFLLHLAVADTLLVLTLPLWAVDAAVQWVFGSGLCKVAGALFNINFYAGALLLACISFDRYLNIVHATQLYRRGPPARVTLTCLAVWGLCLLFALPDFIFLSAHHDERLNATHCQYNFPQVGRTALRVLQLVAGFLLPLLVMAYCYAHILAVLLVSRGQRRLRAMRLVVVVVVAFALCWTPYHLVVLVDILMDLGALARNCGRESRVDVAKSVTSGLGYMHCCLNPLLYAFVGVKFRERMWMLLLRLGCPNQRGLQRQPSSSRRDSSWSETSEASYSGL

`CS(=O)(=O)C1CCN(c2ncc(-c3cc(F)ccc3N3CCN(C(=O)Cn4ccc5cccnc54)CC3)cn2)CC1` [1-[4-(4-fluoro-2-{2-[4-(methylsulfonyl)piperidin-1-yl]pyrimidin-5-yl}phenyl)piperazin-1-yl]-2-(1H-pyrrolo[2,3-b]pyridin-1-yl)ethanone] gave an IC50 [1] of 9 nM.
For `CS(=O)(=O)C1CCN(c2ncc(-c3cc(F)ccc3N3CCN(C(=O)Cn4ccc5ccncc54)CC3)cn2)CC1` [1-[4-(4-fluoro-2-{2-[4-(methylsulfonyl)piperidin-1-yl]pyrimidin-5-yl}phenyl)piperazin-1-yl]-2-(1H-pyrrolo[2,3-c]pyridin-1-yl)ethanone], the IC50 [1] was 8 nM.
`CS(=O)(=O)C1CCN(c2ncc(-c3cc(F)ccc3N3CCN(C(=O)Cn4cnc5cccnc54)CC3)cn2)CC1` [1-[4-(4-fluoro-2-{2-[4-(methylsulfonyl)piperidin-1-yl]pyrimidin-5-yl}phenyl)piperazin-1-yl]-2-(3H-imidazo[4,5-b]pyridin-3-yl)ethanone] gave an IC50 [1] of 10 nM.
`Cc1cc(C)n(CC(=O)N2CCN(c3ccccc3-c3cnc(N4CCCC(C(N)=O)C4)nc3)CC2)n1` (stereo not drawn) [1-[5-(2-{4-[2-(3,5-Dimethyl-pyrazol-1-yl)-acetyl]-piperazin-1-yl}-phenyl)-pyrimidin-2-yl]-piperidine-3-carboxylic acid amide] gave an IC50 [1] of 9 nM.
Work on `Cc1cc(C)n(CC(=O)N2CCN(c3ccccc3-c3cnc(N4CCC(C(N)=O)CC4)nc3)CC2)n1` [1-[5-(2-{4-[2-(3,5-Dimethyl-pyrazol-1-yl)-acetyl]-piperazin-1-yl}-phenyl)-pyrimidin-2-yl]-piperidine-4-carboxylic acid amide] yielded an IC50 [1] of 6 nM.
Work on `CNC(=O)C1CCN(c2ncc(-c3ccccc3N3CCN(C(=O)Cn4nc(C)cc4C)CC3)cn2)CC1` [1-[5-(2-{4-[2-(3,5-Dimethyl-pyrazol-1-yl)-acetyl]-piperazin-1-yl}-phenyl)-pyrimidin-2-yl]-piperidine-4-carboxylic acid methylamide] yielded an IC50 [1] of 9 nM.
`CC1CN(c2ccccc2-c2cnc(N3CCOCC3)nc2)CCN1C(=O)Cn1ccc2cccnc21` (stereo not drawn) [1-{2-Methyl-4-[2-(2-morpholin-4-yl-pyrimidin-5-yl)-phenyl]-piperazin-1-yl}-2-pyrrolo[2,3-b]pyridin-1-yl-ethanone] showed an IC50 [1] of 13 nM.
In the case of `CC1CN(c2ccccc2-c2cnc(N3CCC(S(C)(=O)=O)CC3)nc2)CCN1C(=O)Cn1c(=O)[nH]c2ccccc21` (stereo not drawn) [1-{2-[2-methyl-4-(2-{2-[4-(methylsulfonyl)piperidin-1-yl]pyrimidin-5-yl}phenyl)piperazin-1-yl]-2-oxoethyl}-1,3-dihydro-2H-benzimidazol-2-one], the IC50 [1] is reported as 11 nM.
`CC1CN(c2ccccc2-c2cnc(N3CCC(S(C)(=O)=O)CC3)nc2)CCN1C(=O)CN1CCCCC1=O` (stereo not drawn) [1-{2-[2-methyl-4-(2-{2-[4-(methylsulfonyl)piperidin-1-yl]pyrimidin-5-yl}phenyl)piperazin-1-yl]-2-oxoethyl}piperidin-2-one] gave an IC50 [1] of 34 nM.
Molecule `CC1CN(c2ccc(F)cc2-c2cnc(N3CCC(S(C)(=O)=O)CC3)nc2)CCN1C(=O)Cn1c(=O)[nH]c2ccccc21` (stereo not drawn) [1-{2-[4-(4-fluoro-2-{2-[4-(methylsulfonyl)piperidin-1-yl]pyrimidin-5-yl}phenyl)-2-methylpiperazin-1-yl]-2-oxoethyl}-1,3-dihydro-2H-benzimidazol-2-one] has an IC50 [1] of 9 nM.
With `CC1CN(c2ccc(F)cc2-c2cnc(N3CCC(S(C)(=O)=O)CC3)nc2)CCN1C(=O)CN1CCCCC1=O` (stereo not drawn) [1-{2-[4-(4-fluoro-2-{2-[4-(methylsulfonyl)piperidin-1-yl]pyrimidin-5-yl}phenyl)-2-methylpiperazin-1-yl]-2-oxoethyl}piperidin-2-one] the IC50 [1] was 14 nM.
In the case of `CS(=O)(=O)C1CCN(c2ncc(-c3cc(F)ccc3N3CCN(C(=O)Cn4c(=O)[nH]c5ccccc54)CC3)cn2)CC1` [1-{2-[4-(4-fluoro-2-{2-[4-(methylsulfonyl)piperidin-1-yl]pyrimidin-5-yl}phenyl)piperazin-1-yl]-2-oxoethyl}-1,3-dihydro-2H-benzimidazol-2-one], the IC50 [1] is reported as 7 nM.
For `CS(=O)(=O)C1CCN(c2ncc(-c3cc(F)ccc3N3CCN(C(=O)CN4CCCCC4=O)CC3)cn2)CC1` [1-{2-[4-(4-fluoro-2-{2-[4-(methylsulfonyl)piperidin-1-yl]pyrimidin-5-yl}phenyl)piperazin-1-yl]-2-oxoethyl}piperidin-2-one], the IC50 [1] was 15 nM.
`CC1CN(c2ccc(C(F)(F)F)cc2-c2cnc(N3CCC(S(C)(=O)=O)CC3)nc2)CCN1C(=O)Cn1ccc2ccncc21` (stereo not drawn) [1-{2-methyl-4-[2-{2-[4-(methylsulfonyl)piperidin-1-yl]pyrimidin-5-yl}-4-(trifluoromethyl)phenyl]piperazin-1-yl}-2-(1H-pyrrolo[2,3-c]pyridin-1-yl)ethanone] gave an IC50 [1] of 7 nM.
`CC1CN(C(=O)Cn2ccc3cccnc32)CCN1c1ccccc1-c1cnc(N2CCOCC2)nc1` (stereo not drawn) [1-{3-Methyl-4-[2-(2-morpholin-4-yl-pyrimidin-5-yl)-phenyl]-piperazin-1-yl}-2-pyrrolo[2,3-b]pyridin-1-yl-ethanone] showed an IC50 [1] of 11 nM.
`COc1ncc(-c2ccccc2N2CC3CCC(C2)N3C(=O)Cn2ccc3cccnc32)cn1` [1-{3-[2-(2-Methoxy-pyrimidin-5-yl)-phenyl]-3,8-diaza-bicyclo[3.2.1]oct-8-yl}-2-pyrrolo[2,3-b]pyridin-1-yl-ethanone] gave an IC50 of 7 nM.
In the case of `Cc1cc(C)n(CC(=O)N2CCN(c3ccccc3-c3cnc(N(C)C)nc3)CC2)n1` [1-{4-[2-(2-Dimethylamino-pyrimidin-5-yl)-phenyl]-piperazin-1-yl}-2-(3,5-dimethyl-pyrazol-1-yl)-ethanone], the IC50 [1] is reported as 7 nM.
`CN(C)c1ncc(-c2ccccc2N2CCN(C(=O)Cn3ccc4cccnc43)CC2)cn1` [1-{4-[2-(2-Dimethylamino-pyrimidin-5-yl)-phenyl]-piperazin-1-yl}-2-pyrrolo[2,3-b]pyridin-1-yl-ethanone] was tested, and the IC50 [1] was 6 nM.
`CCNc1ncc(-c2ccccc2N2CCN(C(=O)Cn3ccc4cccnc43)CC2)cn1` [1-{4-[2-(2-Ethylamino-pyrimidin-5-yl)-phenyl]-piperazin-1-yl}-2-pyrrolo[2,3-b]pyridin-1-yl-ethanone] gave an IC50 [1] of 9 nM.
Molecule `CS(=O)(=O)c1ncc(-c2cc(C(F)(F)F)ccc2N2CCN(C(=O)Cn3ccc4cccnc43)CC2)cn1` [1-{4-[2-(2-Methanesulfonyl-pyrimidin-5-yl)-4-trifluoromethyl-phenyl]-piperazin-1-yl}-2-pyrrolo[2,3-b]pyridin-1-yl-ethanone] has an IC50 [1] of 13 nM.
Work on `CS(=O)(=O)c1ncc(-c2ccccc2N2CCN(C(=O)Cn3ccc4cccnc43)CC2)cn1` [1-{4-[2-(2-Methanesulfonyl-pyrimidin-5-yl)-phenyl]-piperazin-1-yl}-2-pyrrolo[2,3-b]pyridin-1-yl-ethanone] yielded an IC50 [1] of 115 nM.
For `COc1cc(-c2ccccc2N2CCN(C(=O)Cn3ccc4cccnc43)CC2)ccn1` [1-{4-[2-(2-Methoxy-pyridin-4-yl)-phenyl]-piperazin-1-yl}-2-pyrrolo[2,3-b]pyridin-1-yl-ethanone], the IC50 [1] was 24 nM.
`COc1ncc(-c2cc(C(F)(F)F)ccc2N2CCN(C(=O)Cn3ccc4cccnc43)CC2)cn1` [1-{4-[2-(2-Methoxy-pyrimidin-5-yl)-4-trifluoromethyl-phenyl]-piperazin-1-yl}-2-pyrrolo[2,3-b]pyridin-1-yl-ethanone] showed an IC50 [1] of 8 nM.
In the case of `COc1ncc(-c2ccccc2N2CCN(C(=O)Cn3ccc4cccnc43)CC2)cn1` [1-{4-[2-(2-Methoxy-pyrimidin-5-yl)-phenyl]-piperazin-1-yl}-2-pyrrolo[2,3-b]pyridin-1-yl-ethanone], the IC50 [1] is reported as 6 nM.
